Data: ChEMBL document CHEMBL5126664, “Anti-Epstein-Barr Viral Agents from the Medicinal Herb-Derived Fungus Alternaria alstroemeriae Km2286” (J Nat Prod, 2022)
pEC50, pIC50: −log10 of the molar value.

Experiments:
[1] = tested on: Human gammaherpesvirus 4; assay: Antiviral activity against EBV infected in P3HR1 cells assessed as decrease in Rta cells at 10 uM measured after 24 hrs by Western blot analysis relative to control; type: functional; conditions: human gammaherpesvirus 4, P3HR-1
[2] = tested on: Human gammaherpesvirus 4; assay: Antiviral activity against EBV infected in P3HR1 cells assessed as decrease in viral replication; type: functional, organism-based; conditions: human gammaherpesvirus 4, P3HR-1
[3] = Cytotoxicity against human P3HR1 cells; type: toxicity, cell-based, P3HR-1
[4] = Selectivity index, ratio of CC50 for human P3HR1 cells to EC50 for EBV; type: toxicity; conditions: read-out: Ratio CC50/EC50
[5] = tested on: BV-2; assay: Antiinflammatory activity in mouse BV2 cells assessed as reduction in LPS-induced nitric oxide production at 10 uM by colorimetric assay relative to control; type: functional
[6] = tested on: BV-2; assay: Antiinflammatory activity in mouse BV2 cells assessed as reduction in LPS-induced nitric oxide production by colorimetric assay; type: functional, cell-based

| pIC50 [6] | SMILES | inhibition at 10 µM [1] [%] | pEC50 [2] | CC50 [3] [µM] | selectivity ratio [4] | inhibition at 10 µM [5] [%] |
| --- | --- | --- | --- | --- | --- | --- |
| 5.49 | O=C1C[C@@H](O)[C@@H]2c3ccc(O)c4c3[C@@H](c3ccc(O)c1c32)[C@H](O)CC4=O [STEMPHYPERYLENOL] | 34 | – | – | – | 77.4 |
| 5.56 | CO[C@H]1c2c3c4c(c(O)ccc4c4ccc(O)c(c24)[C@@H](O)[C@H]1O)C(=O)C=C3 | 100 | 5.92 | 60.1 | 49.7 | 105 |
| – | O=C1C=Cc2c3c4c(c(O)ccc4c4ccc(O)c1c24)[C@@H](O)[C@H](O)[C@@H]3O | 100 | 5.87 | 86.1 | 64.3 | 20.2 |
| 5.39 | O=C1C[C@H](O)[C@H]2c3ccc(O)c4c3[C@H](c3ccc(O)c1c32)[C@@H](O)[C@@H](Cl)[C@@H]4O | 100 | 5.62 | 61.2 | 25.3 | 92.1 |
| – | CC[C@H](C)[C@H]1NC(=O)C(C(C)=O)=C1O | -5 | – | – | – | 41.1 |
| 6.48 | O=C1C[C@H](SCC(O)C(=O)O)[C@@]2(O)c3c(ccc(O)c31)-c1ccc(O)c3c1[C@@H]2[C@@H](Cl)[C@H](O)[C@@H]3O (stereo partly drawn) | 100 | 6.77 | 2.3 | 13.5 | 102 |
| – | CC[C@H](C)[C@@H]1NC(=O)C(C(C)=O)=C1O [TENUAZONIC ACID] | 23 | – | – | – | 62.9 |
| 5.57 | COc1cc(/C=C/C(=O)CC(=O)/C=C/c2ccc(O)c(OC)c2)ccc1O [CURCUMIN] | – | – | – | – | – |

| SMILES | pIC50 [6] | inhibition at 10 µM [1] [%] | pEC50 [2] | CC50 [3] [µM] | selectivity ratio [4] | inhibition at 10 µM [5] [%] |
| --- | --- | --- | --- | --- | --- | --- |
| O=C1C=Cc2c3c4c(c(O)ccc4c4ccc(O)c1c24)[C@@H](O)[C@@H](Cl)[C@H]3O | 6.14 | 100 | 5.82 | 39.4 | 26.1 | 94.9 |
| O=C1C=Cc2c3c4c(c(O)ccc4c4ccc(O)c1c24)[C@@H](O)[C@H](Cl)[C@@H]3O | 5.69 | 100 | 5.50 | > 100 | > 32 | 76.2 |
